pIC50: −log10 of the molar value.
Experiments:
[1] = target: T1, recombinant human DHFR (Homo sapiens, UniProt P00374); experiment: DHFR enzyme inhibition assay (Sigma kit CS0340); assay type: biochemical; settings: NADPH 60 μM, dihydrofolic acid 50 μM
T1 construct: purchased Sigma CS0340
T1 sequence (P00374 1-187): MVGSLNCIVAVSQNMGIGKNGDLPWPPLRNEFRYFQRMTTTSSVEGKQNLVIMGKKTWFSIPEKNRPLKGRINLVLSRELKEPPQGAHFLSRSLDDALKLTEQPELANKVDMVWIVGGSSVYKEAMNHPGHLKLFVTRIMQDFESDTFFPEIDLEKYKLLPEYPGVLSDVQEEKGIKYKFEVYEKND
Protocol: The ability of compounds to inhibit DHFR activity was measured in an assay based on the ability of DHFR to catalyse the reversible NADPH-dependent reduction of dihydrofolic acid to tetrahydrofolic acid using a Sigma kit (Catalogue number CS0340). This uses proprietary assay buffer and recombinant human DHFR at 7.5×10^−4 Unit per reaction, NADPH at 60 μM and dihydrofolic acid at 50 μM. The reaction was followed by monitoring the decrease in absorbance at 340 nm, for a 2 minute period, at room temperature, and the enzyme activity was calculated as the rate of decrease in absorbance. Enzyme activity, in the presence of inhibitor, was expressed as a percentage of inhibitor-free activity and the inhibitor IC50 was determined from a sigmoidal dose response curve using XLfit software (% activity against log concentration of compound). Each sample was run in triplicate and each dose response curve was composed of 10 dilutions of the inhibitor.

[2] = test system: THP-1; experiment: Cell inhibition assay (WST-1 cell viability), THP-1; assay type: cell-based; settings: Homo sapiens, THP-1 cells, 72-96 h, read-out: Inhibition cell proliferation THP-1
Protocol: (§1) Cancer cell lines (U937, HCT-116, THP-1 and HUT78) growing in log phase were harvested and seeded at 1000-2000 cells/well (100 μl final volume) into 96-well tissue culture plates. Following 24 h of growth cells were treated with compound.
(§2) Plates were then re-incubated for a further 72-96 h before a WST-1 cell viability assay was conducted according to the suppliers (Roche Applied Science) instructions. Data were expressed as a percentage inhibition of the control, measured in the absence of inhibitor, as follows:— % inhibition=100−((S^i/S^o)×100) where S^i is the signal in the presence of inhibitor and S^o is the signal in the presence of DMSO. Dose response curves were generated from 8 concentrations (top final concentration 10 μM, with 3-fold dilutions), using 6 replicates. IC50 values were determined by non-linear regression analysis, after fitting the results to the equation for sigmoidal dose response with variable slope (% activity against log concentration of compound), using Graphpad Prism software. IC50 values were allocated to one of the three ranges as follows: • Range A IC %)<100 nM • Range B: 100 nM<IC50<1000 nM • Range C: IC50>1000 nM

[3] = test system: U937; experiment: Cell inhibition assay (WST-1 cell viability), U937; assay type: cell-based; settings: Homo sapiens, U-937, U937 cells, 72-96 h, read-out: Inhibition cell proliferation U937
Protocol: as §1, §2

[4] = test system: HCT-116; experiment: Cell inhibition assay (WST-1 cell viability), HCT-116; assay type: cell-based; settings: Homo sapiens, HCT-116 cells, 72-96 h, read-out: Inhibition cell proliferation HCT-116
Protocol: as §1, §2

[5] = test system: HUT78; experiment: Cell inhibition assay (WST-1 cell viability), HUT78; assay type: cell-based; settings: Homo sapiens, HUT78 cells, 72-96 h, read-out: Inhibition cell proliferation HUT
Protocol: as §1, §2

| Structure (SMILES) | pIC50 [1] | pIC50 [2] | pIC50 [3] | pIC50 [4] | pIC50 [5] |
| --- | --- | --- | --- | --- | --- |
| Cc1c(CNc2ccc(C(=O)N[C@@H](CC(C)C)C(=O)O)cc2)cnc2nc(N)nc(N)c12 [Example 2, (S)-2-(4-((2,4-diamino-5-methylpyrido[2,3-a]pyrimidin-6-yl)methylamino)benzamido)-4-methylpentanoic Acid] | > 7.00 |  |  |  |  |
| Cc1c(CNc2ccc(CN[C@@H](CC(C)C)C(=O)O)cc2)cnc2nc(N)nc(N)c12 [Example 4, (S)-2-{4-[(2,4-Diamino-5-methyl-pyrido[2,3-d]pyrimidin-6-ylmethyl)-amino]-benzylamino}-4-methyl-pentanoic Acid] | > 7.00 |  |  |  |  |
| COc1cc(NCc2ccc3nc(N)nc(N)c3c2C)cc(OC)c1OCCN[C@@H](CC(C)C)C(=O)OC1CCCC1 [Example 8, Cyclopentyl N-[2-(4-{[(2,4-diamino-5-methylquinazolin-6-yl)methyl]amino}-2,6-dimethoxyphenoxy)ethyl]-L-leucinate] | 6.00 to 7.00 | > 7.00 | > 7.00 | 6.00 to 7.00 | > 7.00 |
| Cc1c(CNc2ccc(C(=O)N[C@@H](CC(C)C)C(=O)OC3CCCC3)cc2)cnc2nc(N)nc(N)c12 [Example 1, (S)-2-{4-[(2,4-Diamino-5-methyl-pyrido[2,3-d]pyrimidin-6-ylmethyl)-amino]-benzoylamino}-4-methyl-pentanoic Acid Cyclopentyl Ester] | < 6.00 | > 7.00 | > 7.00 | > 7.00 | > 7.00 |
| COc1cc(NCc2ccc3nc(N)nc(N)c3c2C)cc(OC)c1OCC(=O)N[C@@H](CC(C)C)C(=O)OC1CCCC1 [Example 5, Cyclopentyl N-[(4-{[(2,4-diamino-5-methylquinazolin-6-yl)methyl]amino}-2,6-dimethoxyphenoxy)acetyl]-L-leucinate] | < 6.00 | > 7.00 | > 7.00 | 6.00 to 7.00 | > 7.00 |
| Cc1c(CNc2ccc(CN[C@@H](CC(C)C)C(=O)OC3CCCC3)cc2)cnc2nc(N)nc(N)c12 [Example 3, (S)-2-{4-[(2,4-Diamino-5-methyl-pyrido[2,3-d]pyrimidin-6-ylmethyl)-amino]-benzylamino}-4-methyl-pentanoic Acid Cyclopentyl Ester] | < 6.00 | 6.00 to 7.00 | > 7.00 | < 6.00 | 6.00 to 7.00 |

Second part, led by results:

| pIC50 [1] | pIC50 [2] | pIC50 [3] | pIC50 [4] | Structure (SMILES) | pIC50 [5] |
| --- | --- | --- | --- | --- | --- |
| > 7.00 |  |  |  | COc1cc(NCc2ccc3nc(N)nc(N)c3c2C)cc(OC)c1OCCN[C@@H](CC(C)C)C(=O)O [Example 9, N-[2-(4-{[(2,4-diamino-5-methylquinazolin-6-yl)methyl]amino}-2,6-dimethoxyphenoxy)ethyl]-L-leucine] |  |
| > 7.00 |  |  |  | COc1cc(NCc2ccc3nc(N)nc(N)c3c2C)cc(OC)c1OCC(=O)N[C@@H](CC(C)C)C(=O)O [Example 7, N-[(4-{[(2,4-diamino-5-methylquinazolin-6-yl)methyl]amino}-2,6-dimethoxyphenoxy)acetyl]-L-leucine] |  |
| < 6.00 | > 7.00 | > 7.00 | 6.00 to 7.00 | COc1cc(NCc2ccc3nc(N)nc(N)c3c2C)cc(OC)c1OCC(=O)N[C@@H](CC(C)C)C(=O)OC(C)(C)C [Example 6, tert-Butyl N-[(4-{[(2,4-diamino-5-methylquinazolin-6-yl)methyl]amino}-2,6-dimethoxyphenoxy)acetyl]-L-leucinate] | 6.00 to 7.00 |
| 6.00 to 7.00 | 6.00 to 7.00 | 6.00 to 7.00 | 6.00 to 7.00 | COc1cc(NCc2ccc3nc(N)nc(N)c3c2C)cc(OC)c1OCCN[C@@H](CC(C)C)C(=O)OC(C)(C)C [Example 10, tert-Butyl N-[2-(4-{[(2,4-diamino-5-methylquinazolin-6-yl)methyl]amino}-2,6-dimethoxyphenoxy)ethyl]-L-leucinate] | 6.00 to 7.00 |

From US8211900B2, “DHFR enzyme inhibitors” (Chroma Therapeutics Ltd., priority 2006, dated 2012)
